{"source": "patent US9587220B2", "about": "“Method for inducing cardiac differentiation of pluripotent stem cell” (Kyoto University, priority 2012, dated 2017)", "type_in_all_cases": "cell-based, human", "key": {"IMR90-1 hiPSCs [1]": {"test_system": "IMR90-1 hiPSCs", "test": "Number of beating colonies and total number of cardiomyocytes per well (WNT inhibitor combinations)", "details": "total cell number x cTnT-positive ratio, FIG. 3e"}, "[2]": {"test_system": "hESC lines (KhES-1, KhES-3), monkey ESC line (CMK6.4), mouse ESC line (R1), hiPSC lines (IMR90-1, IMR90-4, 253G1, RCHIPC0003)", "test": "Beating cardiac colony ratio in a variety of PSC lines treated with KY02111 (serum-containing medium)", "details": "KY02111 treatment, FIG. 1e", "description": "All PSC lines were maintained on mitomycin C-treated mouse embryonic fibroblasts (MEF), in Primate ES Cell Culture Medium (ReproCELL Inc., Japan), with 5 ng ml^−1 bFGF for hPSCs, and without bFGF for monkey ESCs. Human ESC lines were KhES-1, KhES-3, H1, and H9 (Non-patent literatures 1, 41). Human iPSC lines were 253G1, IMR90-1, IMR90-4 (Non-patent literatures 42, 43), and RCHIPC0003. RCHIPC0003 was established from human fibroblasts by ReproCELL. The monkey ESC line was CMK6.4 (Non-patent literatures 1, 44, 45). The hESC line was used in conformity with the Guidelines for Derivation and Utilization of Human Embryonic Stem Cells of the Ministry of Education, Culture, Sports, Science, and Technology of Japan.\nConfluent hESCs and hiPSCs were gently detached with CTK solution and transferred into Petri dishes (BD Biosciences) with Primate ES Cell Culture Medium (ReproCELL, Japan). Cells were held in suspension culture for 8-24 h to form aggregates. The sizes of hPSC aggregates (0.3-1 mm in diameter) are important for efficient differentiation. […] Beating colonies were counted on Day 9."}, "IMR90-1 hiPSCs [3]": {"test_system": "IMR90-1 hiPSCs", "test": "Immunostaining of cardiac, pacemaker and fibroblast markers in differentiated hiPSCs", "description": "Confluent hESCs and hiPSCs were gently detached with CTK solution and transferred into Petri dishes (BD Biosciences) with Primate ES Cell Culture Medium (ReproCELL, Japan). Cells were held in suspension culture for 8-24 h to form aggregates. The sizes of hPSC aggregates (0.3-1 mm in diameter) are important for efficient differentiation. Following suspension culture, cell aggregates were attached to culture dishes (3-10×10^5 cells cm^−2) in cardiac differentiation medium: IMDM (Sigma), containing 20% FBS (Gibco), 1% MEM non-essential amino acid solution (Sigma), 1% Penicillin-Streptomycin (Gibco), 2 mM L-glutamine (Sigma), 0.001% 2-Mercaptoethanol (Gibco), and 0.005N NaOH, with 10 ng ml^−1 BMP4 (R&D Systems). The medium was changed to cardiac differentiation medium with 10 μM KY02111 and/or other WNT inhibitors added on Day 3 (hiPSC lines) or Day 4 (human or monkey ESC lines); XAV939 (Wako, Japan), IWP-2 (Santa Cruz Biotechnology), IWR-1 (Merck4Bioscience), IGFBP4 (R&D Systems), Dkk1 (R&D Systems) and the mixture of bFGF (R&D Systems), BMP4 (R&D Systems), VEGF (R&D Systems), DKK1 (R&D Systems), and Activin A (R&D Systems) (Non-patent literature 16). Medium was changed every 2-3 d. KY02111 and other WNT inhibitors were added until Day 9 for hiPSC lines and the monkey ESC line, or Day 14 for hESC lines. On Day 15, cardiac cell colonies on dishes were incubated with protease solution (0.1% collagenase type I, 0.25% trypsin, 1 U ml^−1 DNase I, 116 mM NaCl, 20 mM HEPES, 12.5 mM NaH2PO4, 5.6 mM glucose, 5.4 mM KCl, and 0.8 mM MgSO4, pH 7.35) for 0.5-2 h, until all cardiac colonies were detached from the bottom of the wells. The detached cardiac colonies were transferred into 15 ml tubes with fresh cardiac differentiation medium and precipitated by gravity, and the supernatant was removed by aspiration. The cardiac colonies were then transferred into Ultra-low culture dishes (Corning, 3261) or 6-well plates (Corning, YO-01835-24) in cardiac differentiation medium without both serum and NaOH. The floating cardiac colonies were maintained for more than 1 month, and the media were changed every 5 d. A differentiation method of mouse ESC (R1 line) was carried out as previously described^46, and KY02111 was added during Days 3-6. Beating colonies were counted on Day 9.\nCardiac colonies were dissociated by stirring for 1-2 h at 37° C. with the protease solution described above, cultured for 1 d on cover glasses coated with gelatin (Sigma), and fixed with 4% paraformaldehyde. After permeabilizing with Triton X, the cells were treated with 2% skim milk for 1-2 h, then incubated with primary antibodies for 2 h: NKX2.5 (rabbit polyclonal, 1:250; Abcam), αActinin (mouse monoclonal, 1:800; Sigma), cardiac TnT (mouse monoclonal, 1:100; Santa Cruz Biotechnology), Vimentin (mouse monoclonal, 1:800; Sigma V6630), and HCN4 (mouse monoclonal, 1:400; Abcam). The secondary antibodies used were Alexa546-conjugated anti-mouse IgG, Alexa488-conjugated anti-mouse IgG, and Alexa488-conjugated anti-rabbit IgG (1:1000; all from Molecular Probes, Invitrogen). Nuclei were visualized by DAPI. Images were captured under fluorescent microscopy (Olympus). The number of cTnT, αActinin, NKX2.5, HCN4, and Vimentin-positive cells were counted from three random areas, using the Metamorph imaging system (Molecular Devices). […] Cells were analyzed using a FACS CantoII flow cytometer (BD Biosciences). Data was analyzed using FACADiva software (BD Biosciences)."}}, "note": "Where “and” joins values, the source holds several entries; their conditions need not be identical. Identical values can stand only once.", "data": [{"smiles": "COc1ccc(CCC(=O)Nc2nc3ccc(Cl)cc3s2)cc1OC", "note": "[KY02111, 2-(3-(3,4-dimethoxyphenyl)propanamide)-6-chlorobenzothiazole]", "values": [{"measurement": "number of cardiomyocytes produced relative to the control", "setting": "IMR90-1 hiPSCs [1]", "result": 80, "unit": "fold"}, {"measurement": "ratio of beating colonies per all of colonies on culture dish", "setting": "[2]", "result": "60-94% and 70-90%"}, {"measurement": "SMA (smooth muscle marker) expression", "setting": "IMR90-1 hiPSCs [3]; data not shown", "result": "almost undetectable"}, {"measurement": "Vimentin-positive ratio", "setting": "IMR90-1 hiPSCs [3]; serum-containing medium", "result": 20, "unit": "%"}, {"measurement": "cells positive for pacemaker marker HCN4", "setting": "IMR90-1 hiPSCs [3]; serum-containing medium", "result": 16, "unit": "%"}, {"measurement": "cTnT-positive cells", "setting": "IMR90-1 hiPSCs [3]; serum-containing medium, FIG. 10b", "result": "approximately 80%"}, {"measurement": "decrease of ratio of Vimentin-positive cells (fibroblasts)", "setting": "IMR90-1 hiPSCs [3]; versus DMSO", "result": 3.3, "unit": "fold"}]}]}
